Our source for the EC50 and LC50 values is ChEMBL document CHEMBL1151129, “Two new bioactive carbazole alkaloids from the root bark of Clausena harmandiana” (J Nat Prod, 1988).

Data set [1] in a line: Cytotoxicity against human KBMRI cells. The conditions noted are these: read-out: ED50 (the source's name). Type of data set: functional.
A short description of data set [2]: Cytotoxicity against human 9KB cells. The conditions noted are these: read-out: ED50 (the source's name). Type of data set: functional.
The test system of a further data set is HT-29. Put plainly: Cytotoxicity against human HT-29 cells. It is filed as functional. Particulars: read-out: ED50 (the source's name).
The nature of data set [3]: Cytotoxicity against mouse 9PS cells. Type of data set: functional. Particulars: read-out: ED50 (the source's name).
For another data set, the system named is Artemia. Kind of data set: Toxicity to brine shrimp. It is filed as organism-based. Particulars: in vivo.
In a further data set the test system is A549. Kind of data set: Cytotoxicity against human A549 cells. Type of data set: functional. Particulars: read-out: ED50 (the source's name).

Each structure is given as a SMILES string. Converted amounts (≈) assume the structure as drawn. Some results are limits rather than exact numbers.

Consider `COc1ccc2c(c1)[nH]c1cc(O)c(C=O)cc12`, for which the EC50 was 4.48 µg/mL (≈ 18.6 µM) in data set [1]; 5.7 µg/mL (≈ 23.6 µM) in data set [2]; 4 µg/mL (≈ 16.6 µM) in the data set on HT-29; > 10 µg/mL in data set [3]; 2.74 µg/mL (≈ 11.4 µM) in the data set with A549. In the data set with Artemia, the 50% lethal concentration (LC50) is recorded as 35 ppm.
Turning to `COc1ccc2c(c1)[nH]c1c(CC=C(C)C)c(O)c(C=O)cc12`, the EC50 is 2.87 µg/mL (≈ 9.28 µM) in data set [1]; 3.01 µg/mL (≈ 9.73 µM) in data set [2]; 1.36 µg/mL (≈ 4.4 µM) in the data set with HT-29; > 10 µg/mL in data set [3]; 2.16 µg/mL (≈ 6.98 µM) with A549. For the same compound, the LC50 with Artemia was > 500 ppm.
